Test results: patent US12589143B2, “Human anti-PD-L1 peptide vaccines and methods of their use” (priority 2019, dated 2026)
Where no end group is shown, it is not given here.

Assays:
[1] = test system: MVF-PD-L1 peptide immunogen; experiment: Immunogenicity in Balb/c mice, experiment 2 (CT26/HER-2): ELISA of sera vs each MVF-PD-L1 peptide immunogen; format: in vivo; conditions: Balb/c mice
Experimental: Immunogenicity of MVF-PD-L1 B-cell epitopes. New Zealand White rabbits were immunized with 1 mg of each MVF-peptide immunogens dissolved in dd H2O emulsified (1:1) in Montanide ISA 720 vehicle (Seppic) with 333 μg of N-acetylglucosamine-3yl-acetyl-1-alanyl-d-isoglutamine (nor-MDP). Rabbits were boosted with the same doses at 3-week's intervals. Blood was collected via the central auricular artery in rabbits. Blood was collected weekly (1Y+3, 2Y+1, 2Y+2,2Y+3, 3Y+1, 3Y+2 and sera tested for antibody titers by ELISA using the immunogens MVF-PD-L1 peptides. Sera (terminal) from rabbit (3Y+3) immunized with MVF-PD-1 peptide immunogens were tested individually versus the immunogen by ELISA. 200 ng/well peptide were used in duplicates to coat the ELISA plates. Titers are defined as the highest dilution of sera with an absorbance value of 0.2 after subtracting the blank. […]
In order to verify the efficacy of the PD-L1 epitope vaccines in vivo in the CT26/HER-2 carcinoma cell line, Balb/c mice (10 mice/group) were immunized with 100 μg each of MVF-PD-L1 (36-53), MVF-PD-L1 (50-67), MVF-PD-L1 (95-112) and MVF-PD-L1 (130-147) emulsified with nor-MDP and Montanide 720 (1:1 ratio) SCHEME 2A (FIG. 15A). As detailed in SCHEME 2A-D (FIGS. 15A, 15B, 15C, and 15D), mice were immunized 3 times at 3 weeks intervals. […] All PD-L1 epitopes elicited high titers of PD-L1 anti-peptide antibodies by ELISA. […] We also investigated the combination of PD-1(92-110) with PD-L1-95.
For each peptide, vaccine antibodies were raised in New Zealand white rabbits, purchased from Charles River Laboratories (Wilmington, MA, USA). Rabbits were immunized with 1 mg of MVF chimeric peptide emulsified in Montanide ISA 720 (Seppic, Paris, France) and boosted 3 times at three week intervals. For mouse experiments, mice, 6-8 weeks old, were immunized with 0.1 mg of peptide emulsified in ISA720 (1:1 ratio). Mice were boosted with the respective doses at 3-week intervals. Blood was then collected and sera were tested for antibody titers. Sera were collected weekly and peptide vaccine antibodies were purified by affinity chromatography using a protein A/G column and the concentration was measured using Spectrophometer. All experiments were performed in accordance with the U.S. Public Health Service Policy on Humane Care and Use of Laboratory animals and approved by the Ohio State University Institutional Animals Care and Use Committee, detailed in the accepted protocol.
(§1) 6-8 weeks old BALB/c mice (Charles River, Wilmington, MA) were used as standard animal models. Mouse CT26 colon carcinoma cell line was purchased from American Type Culture Collection Cells and were regularly cultured in RPMI1640 medium containing 10% FBS. CT26/HER2 cells were kindly provided by M. Penichet. Vaccines were dissolved in sterile water and emulsified in Montanide ISA 720 (1:1). Female Balb/c mice (Charles River Laboratories) at the age of 6-8 weeks were immunized three times at 3-week intervals with 100 μg of each peptide vaccine, and 2 weeks after the third immunization, the mice were challenged with CT26 and/or CT26/HER-2 tumor cells, which were implanted subcutaneously (s.c) on the right flank (1×10^5 per mouse). 200 μg of rat α-mouse PD-L1 mAb 10F.9G2 (Bio X Cell, West Lebanon, NH) were administered intraperitoneally (i.p.), twice weekly following tumor inoculation in the control group. Mice were monitored and scored for the formation of palpable tumors on a daily basis and sacrificed if tumors became necrotic or exceeded the predetermined size of 2,000 mm^3. Tumor volumes were measured in cubic millimeters with calipers and calculated with the following formula: A×B^2×0.5, where A is the largest diameter, and B is the widest point perpendicular to length. During immunization, blood was drawn weekly and used in ELISA to monitor antibody titers.

[2] = test system: CT26 colon carcinoma cell line; experiment: CT26 WT tumor challenge in immunized Balb/c mice; format: in vivo
Source text: FIGS. 5A, 5B, 5C, and 5D show the experimental scheme to test the immunization with PD-L1 in Balb/c mice. […] Balb/c mice 6-8 weeks old, were immunized with MVF-peptide immunogens emulsified in ISA 720 with nor-MDP three times and three weeks apart. Mice were immunized with MVF-PD-L1 vaccine constructs [PD-L1(36-53), PD-L1(50-67), PD-L1(95-112), PD-L1(130-147)] prior to tumor challenge. Blood was collected weekly and sera tested for antibody titers by ELISA. Two weeks after the third immunization (3Y), the mice were engrafted with CT26 WT tumor cells 10^5 per mouse Control mice were treated twice weekly with PBS as negative control and twice weekly with anti-mPD-L1 mAb (10F.9G2) as positive control starting 2 days after tumor challenge. Tumor growths were observed twice weekly and measured by calipers.
The peptide vaccines were dissolved in water and emulsified in Montanide ISA 720 (1:1) and 100 μg nor-MDP (N-acetylglucosamine-3yl-acetyl-1-alanyl-d-isoglutamine). Female Balb/c mice (Charles River Laboratories) at the age of 5 to 6 weeks were immunized three times at 3-week intervals with 100 μg peptide vaccine, and 15 days after the third immunization, the mice were challenged s.c. with CT-26 tumor cells (100,000 per mouse). Mice immunized with an irrelevant MVF peptide chimera were used as a negative control.
Mice treated twice a week with anti-mouse PD-L1 MAb (Bio X Cell, West Lebanon, NH) 200 ug/dose was used as a positive control. Tumor growth was monitored for up to 18 days after challenge. During immunization, blood was drawn biweekly and used in ELISA to monitor Ab titers. The mice were euthanized at the end of treatment and tumors extracted and weighed samples of the tumors were saved for further study and for histological examination. The spleens were also collected for further examination.
Two weeks after the third immunization (3Y), the mice were inoculated subcutaneously (s.c) with CT26 carcinoma cells (1×10^5 cells per mouse) and tumor formation was monitored on a daily basis afterwards. Mice treated with PBS served as negative control, and twice weekly treated mice with 200 μg/dose injections of anti-mouse PD-L1 monoclonal antibody (mAb clone 10F.9G2) served as positive control. Tumor growth was monitored daily and measured by caliper. […] PD-L1 B-cell epitope vaccines treatment had similar and significant reduction in tumor growth at day 16 post challenge as compared to negative control treatment with PBS (FIG. 9).
as §1
Tumor sizes were observed daily and measured by caliper. Tumor volumes were calculated by formula: Volume=(Length*Width*Width)/2. […]

Sequence | Immunogenicity (titers) 1′ Conc. 1: ([1]; bleed 1Y + 3) | Immunogenicity (titers) 1′ Conc. 1: ([1]; bleed 2Y + 1) | Immunogenicity (titers) 1′ Conc. 1: ([1]; bleed 2Y + 2) | Immunogenicity (titers) 1′ Conc. 1: ([1]; bleed 2Y + 3) | Immunogenicity (titers) 1′ Conc. 1: ([1]; bleed 3Y + 1) | Immunogenicity (titers) 1′ Conc. 1: ([1]; bleed 3Y + 2) | Immunogenicity (titers) 1′ Conc. 1: ([1]; bleed 3Y + 3) | tumor inhibition versus PBS ([2]; Balb/c) | average tumor growth inhibition ([2]; day 14 and 16)
KLLSLIKGVIVHRLEGVEGPSLYRCMISYGGADYKRITVK (KLLSLIKGVIVHRLEGVEGPSLYRCMISYGGADYKRITVK-NH2) [PD-L1(95)] | 100 | 12800 | 64000 | 64000 | 128000 | 128000 | 128000 |  | 
KLLSLIKGVIVHRLEGVEGPSLFVHGEEDLKVQHSSYRQR (KLLSLIKGVIVHRLEGVEGPSLFVHGEEDLKVQHSSYRQR-NH2) [PD-L1(50)] | 6400 | 25600 | 128000 | 128000 | 128000 | 256000 | 256000 | significant inhibition of tumor growth | strongest average tumor growth inhibition
